Each structure is given as a SMILES string.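 These data come from cells grown in 96-well plates and exposed to compound for 48 hours at five concentrations. At the GI50, growth is halved. TGI: total growth inhibition.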

The values below come from PubChem BioAssay (NCI).

Holding throughout (experiment): NCI-60 cell line screen, 48 h
For assay [1], the system named is SNB-75 CNS.
Assay [2] deals with OVCAR-5 ovarian.
Assay [3] has as its system UO-31 renal.
The test system of assay [4] is LOX IMVI melanoma.
The subject of assay [5] is DU-145 prostate.
Assay [6] deals with RPMI-8226 leukemia.
Assay [7] concerns HCT-15 colon.
Assay [8] concerns SW-620 colon.
Assay [9] deals with SK-MEL-5 melanoma.
Assay [10] relates to M14 melanoma.

With `CCOC(=O)/C=C(/C)Sc1cc(O)c2ccccc2c1O`, the GI50 in assay [1] was 2.55 µM; in assay [2], 17.5 µM; in assay [3], 1.59 µM; in assay [4] it was 2.14 µM; in [5], 1.86 µM; in [6], 2.29 µM. Moreover, the GI50 in [7] is 2.54 µM; in assay [8], 2.3 µM; in assay [9], 1.59 µM; in [10] it was 1.76 µM. In addition, the TGI is 6.94 µM in assay [1]; 34 µM in [2]; 11.1 µM in assay [3]; more than 23.1 µM in [4]; 3.44 µM in assay [5]; 9.09 µM in assay [6]. Also, the TGI was 8.83 µM in [7], 5.39 µM in assay [8], 2.99 µM in assay [9] and 3.48 µM in [10].

For the molecule `c1ccc2nc3c(nc2c1)sc1ccccc13`, the TGI in [1] was 62.8 µM; in assay [2] it was more than 100 µM; in assay [3], more than 100 µM; in assay [4], more than 100 µM; in assay [5], more than 100 µM; in assay [6], more than 100 µM. Moreover, the TGI in assay [7], in assay [8], in assay [9] and in assay [10] was more than 100 µM throughout.

As for `O=C1NC(=O)C(c2cccc([N+](=O)[O-])c2)=C1Nc1cc(Cl)c(O)c(Cl)c1`, the GI50 in assay [1] was 10.7 µM; in assay [2], more than 25 µM; in assay [3] it was more than 17.6 µM; in assay [4], 24.3 µM; in [5], more than 25 µM; in assay [6], more than 25 µM. Also, the GI50 is more than 25 µM in assay [7], more than 25 µM in assay [8], 24.4 µM in assay [9] and more than 25 µM in [10]. Further, the TGI in assay [1], in assay [2], in assay [3], in assay [4], in assay [5] and in assay [6] was more than 25 µM throughout. The TGI in [7], in assay [8], in [9] and in assay [10] was more than 25 µM throughout.

For `COc1cc2c3c(n(CCCOC(=O)C(F)(F)F)c(=O)c2cc1OC)-c1cc2c(cc1C3=O)OCO2`, the GI50 in assay [1] is 0.0726 µM; in assay [2] it was 0.14 µM; in [3], less than 0.01 µM; in [4] it was less than 0.01 µM; in [6], less than 0.01 µM; in assay [7], 0.103 µM. In addition, the figures for the GI50 in [9] and in assay [10] were 0.402 µM and less than 0.0123 µM, respectively. Further, the TGI was more than 100 µM in [1]; 43.8 µM in [2]; more than 100 µM in [3]; 0.0371 µM in assay [4]; 1.71 µM in assay [5]; 0.0158 µM in assay [6]. Further, the TGI in assay [7] is more than 100 µM; in assay [8] it was more than 100 µM; in [9] it was 1.24 µM.

As for `N#Cc1c(N/N=C/c2ccc(Cl)cc2Cl)nc(N)nc1N1CCCC1`, the GI50 was 6.26 µM in assay [1]; 24.6 µM in [2]; 32 µM in assay [3]; 31.8 µM in assay [4]; 10.7 µM in assay [5]; 30.9 µM in [6]. Besides, the GI50 in assay [7] was 19.3 µM; in assay [8], 19.5 µM; in assay [9], 21.5 µM; in assay [10] it was 44.2 µM. Also, the TGI was 49.8 µM in [1]; 99.7 µM in assay [2]; more than 100 µM in [3]; more than 100 µM in assay [4]; more than 100 µM in assay [5]; more than 100 µM in assay [6]. The TGI in assay [7], in assay [8], in assay [9] and in assay [10] was more than 100 µM each time.

Turning to `COc1ccc(-c2coc3c4c(ccc3c2=O)OCO4)cc1OC`, the TGI in assay [1], in assay [2], in assay [3], in [4], in assay [5] and in assay [6] was more than 100 µM throughout. For the same molecule, the TGI in assay [7], in assay [8], in assay [9] and in [10] was more than 100 µM each time.

Take `CCCOc1ccc2sc(NC(=O)OC)nc2c1`: the GI50 in assay [1] is 2.58 µM; in assay [2] it was more than 100 µM; in assay [3], 6.07 µM; in assay [4] it was 5.66 µM; in [5] it was 4.05 µM; in [6], 2.65 µM. In addition, the GI50 in assay [7] is 0.611 µM; in [8] it was 0.544 µM; in [9], 1.12 µM; in assay [10], 1.26 µM. For the same molecule, the TGI in [1], in assay [2], in assay [3], in [4], in assay [5] and in assay [6] was more than 100 µM in each case. For the same molecule, the TGI in [7], in [8], in assay [9] and in assay [10] was more than 100 µM each time.

In the case of `COc1ccc(O)c(C(=O)c2ccc(C(=O)N[C@H]3CCCNC[C@@H]3NC(=O)c3ccncc3)cc2)c1F`, the GI50 in assay [1] is 0.0135 µM; in [2] it was more than 25 µM; in assay [3] it was more than 18.9 µM; in [4], 7.38 µM; in assay [5], 7.28 µM; in assay [6] it was 10.3 µM. For the same molecule, the GI50 is more than 25 µM in assay [7], more than 25 µM in assay [8], 5.5 µM in [9] and 6.43 µM in [10]. Further, the TGI in assay [2] is more than 25 µM; in [3], more than 25 µM; in [4], more than 25 µM; in [5], 24.5 µM; in [6], more than 25 µM; in assay [7] it was more than 25 µM. The figures for the TGI in assay [8], in [9] and in [10] were more than 25 µM, more than 17.8 µM and more than 22.4 µM, respectively.

`CCn1c(=O)c2c(=O)c3c4c(oc3oc2c2ccccc21)C(=O)c1ccccc1C4=O`: the GI50 in assay [1] is more than 20.8 µM; in assay [2] it was more than 100 µM; in [3], more than 100 µM; in [5], more than 100 µM; in assay [6] it was 2.91 µM; in assay [7], more than 100 µM. Also, the GI50 in assay [8], in [9] and in assay [10] was more than 100 µM throughout. In addition, the TGI in assay [1] is more than 53.3 µM; in [2] it was more than 100 µM; in assay [3], more than 100 µM; in [4] it was more than 100 µM; in assay [5] it was more than 100 µM; in assay [6], more than 100 µM. Also, the TGI in [7], in assay [8], in [9] and in assay [10] was more than 100 µM in each case.

As to `CN(CCO)c1ccc(N2Cc3ccccc3OC3=C2C(=O)c2c(O)ccc(O)c2C3=O)cn1`, the GI50 in [1] was 0.348 µM; in [2], 0.325 µM; in [3], 0.0971 µM; in assay [4], 0.114 µM; in assay [5], 0.174 µM; in assay [6] it was 0.227 µM. The GI50 in [7] is 0.127 µM; in assay [8], 0.0728 µM; in assay [9], 0.267 µM; in assay [10], 0.192 µM. Also, the TGI in [1] is 1.8 µM; in assay [2], 0.997 µM; in [3] it was 0.304 µM; in [4], 0.33 µM; in assay [5] it was 0.323 µM; in [6] it was 0.713 µM. The TGI in [7] is 0.484 µM; in [8], 0.328 µM; in assay [9], 0.717 µM; in assay [10] it was 0.409 µM.

`CC1=C(C(=O)Nc2ccc(Cl)c(Cl)c2)C(c2cccc(Oc3ccccc3)c2)NC(=O)N1` (centres undefined): the GI50 in assay [1] was 15.9 µM; in assay [2] it was 13.4 µM; in assay [3], 4.74 µM; in [4] it was 4.33 µM; in assay [5], 6.5 µM; in [6], 13.4 µM. Further, the GI50 in assay [7] is 6.61 µM; in assay [8], 12.8 µM; in [9] it was 8.07 µM; in [10], 17.8 µM. In addition, the TGI is more than 50 µM in [1]; 33 µM in assay [2]; more than 50 µM in assay [3]; 13.8 µM in assay [4]; 33.3 µM in assay [5]; more than 50 µM in assay [6]. For the same molecule, the TGI in assay [7] came to 48.2 µM; in assay [8], 43.8 µM; in assay [9], 17 µM; in [10], 31.7 µM.

In the case of `O=C1NC(=O)/C(=C\c2ccccc2)C2=C1CCCC2`, the GI50 in assay [1] was 11.9 µM; in assay [2], 3.53 µM; in [3] it was 7.43 µM; in [4], 1.85 µM; in assay [5] it was 10.8 µM; in [6], 1.91 µM. Moreover, the GI50 is 10.4 µM in assay [7], 2.37 µM in [8], 1.81 µM in [9] and 3.72 µM in assay [10]. The TGI in assay [1] was 24.7 µM; in [2], 12 µM; in [3] it was 21.8 µM; in [4], 4.06 µM; in [5], 22.9 µM; in assay [7], 22.5 µM. Further, the TGI in assay [8] was determined as 6.94 µM; in assay [9], 3.52 µM; in [10], 12.8 µM.

Consider `COc1ccc(-n2c(C)cc(-c3ccccc3)c2C)cc1`, for which the GI50 was 3.37 µM in [1]; 2.48 µM in assay [2]; 2.24 µM in assay [3]; 2.55 µM in [4]; 4.66 µM in assay [5]; 1.49 µM in [6]. Also, the GI50 was 1.95 µM in assay [7], 2.14 µM in [8], 1.77 µM in [9] and 2.59 µM in [10]. For the same molecule, the TGI in [1] was more than 100 µM; in [2], 14.6 µM; in assay [3] it was 95.8 µM; in assay [4] it was 11.9 µM; in [5], 22.3 µM; in assay [6], 5.02 µM. Also, the TGI in assay [7] turned out to be 13.3 µM; in assay [8] it was 12.5 µM; in assay [9], 4.86 µM; in assay [10] it was 9.14 µM.

In the case of `c1ccc2c(c1)c1c(c3ccccc32)CN2CCCC2C1` (centres undefined), the TGI is 35.3 µM in assay [1]; more than 43.4 µM in [2]; 11.8 µM in [3]; 9.46 µM in [4]; more than 100 µM in assay [5]; more than 24.2 µM in assay [6]. The TGI in assay [7] is more than 70.4 µM; in assay [8] it was 16.7 µM; in [9], 11.2 µM; in [10], 15.8 µM.

For `COc1ccc(-c2ccc(-c3ccc(C(=N)N)s3)s2)cc1`, the GI50 in [1] is 1.39 µM; in assay [2], 0.197 µM; in assay [3] it was 0.181 µM; in [4], 0.191 µM; in assay [5] it was 0.193 µM; in [6], 0.221 µM. The GI50 in assay [7] is 0.195 µM; in assay [8], 0.18 µM; in assay [9], 1.21 µM; in assay [10], 0.18 µM. The TGI was 2.91 µM in [1]; 0.43 µM in assay [2]; 0.355 µM in [3]; 0.382 µM in assay [4]; 0.357 µM in [5]; 0.469 µM in assay [6]. Also, the TGI is 0.415 µM in assay [7], 0.353 µM in assay [8], 2.87 µM in [9] and 0.344 µM in [10].
